What was measured:
[1] = test system: cultured human buccal carcinoma cells (SqCC/Y1 cells)
Description: (§1) In vitro permeability testing was conducted as follows. Starting with acrylic inserts having one end sealed with 0.6 cm square area inserts of acrylic and polycarbonate membranes without cells, the cultured human buccal carcinoma cells (SqCC/Y1 cells) were grown on the membrane surface in culture medium for a period of 24 hours. The culture medium was removed from the top of the insert (“air-lifting” process), wherein the cells continued to receive nutrients from the culture medium beneath the inserts. Under these conditions, the cells were grown for a period of 7 to 10 days so as to grow the cells to multilayer confluence on the polycarbonate membrane, thereby increasing cellular density to a multi-layer, tissue-like barrier resembling that of buccal mucosal tissue.
(§2) The assay was performed by rinsing the inserts with Krebs-Ringer buffer solution without sodium bicarbonate (KRB) and inspecting for uniformity by measuring the transepithelial electrical resistance (TEER). When the average electrical resistance necessary was 350 ohms or greater, the inserts were selected for permeability testing, thereby ensuring consistent permeability barrier thickness and distribution.
(§3) The inserts were separated into the groups (e.g., n=3) with closely similar average TEER values (of the group) to be used in testing particular formulations of active pharmaceutical ingredients (i.e., polypeptide). For a given bile salt, for example, the sample groups were as follows: • 1) polypeptide alone; • 2) polypeptide in combination with bile salt; • 3) polypeptide in combination with effervescent excipient composition (Excipient Formula 1) powder; • 4) polypeptide in combination with bile salt (varying concentrations) and effervescent excipient composition (Excipient Formula 1) powder.
(§4) The inserts were placed into cell culture wells with a defined volume of KRB and incubated at 37° C. on shaker tables set at 100 rpm. Thus, the cells were exposed to the given active ingredient (polypeptide) without and in combination with the various excipient formulations described.
(§5) Samples were removed from the basolateral fluid every 10 minutes for a period of one hour, and the removed fluid was replaced with an equal volume of KRB. At the end of the hour, the residual fluid within the insert was recovered and stored, the insert was rinsed with KRB, and the TEER value again measured. The TEER differences between the starting step TEER and final step TEER were recorded.
(§6) The samples from the basolateral wells were analyzed for the active ingredient (polypeptide) using various techniques. The amount of active in the well was calculated and corrected for sampling loss.
(§7) Enhancement Ratio (ER) is equal to the ratio of the Papp with absorption enhancer divided by the Papp without absorption enhancer. Thus, this technique was used for each of the proposed permeability enhancement compositions below.
(§8) The permeability of fluorescently-labeled polypeptide with and without enhancement was measured by the in vitro permeability assay. The amount of polypeptide permeating through the cells/tissue into the basolateral fluid was measured and the apparent permeability coefficient (Papp) for each polypeptide sample was calculated.

[2] = Anaesthetized dog model, desmopressin oral transmucosal (buccal) permeation, serum by LC/MS/MS; type: in vivo
Source text: Anesthetized dog models were used to evaluate transmucosal permeation of polypeptide compositions prepared in accordance with the invention. Mature mongrel large-breed (15-35 kg) dogs were screened for medical conditions to qualify. For testing, the dogs were anaesthetized, placed on their right or left side, and cannulated via the cephalic vein. A Teflon ring was attached to the buccal mucosa in a horizontal position to form a reservoir. Biologically active polypeptides to be evaluated were deposited, with or without enhancer components, onto the buccal mucosa surrounded by the ring. Depending upon the experiment, active polypeptides were deposited in the form of solution, dry powder or solid dosage form (tablet). Blood samples were taken every 10 minutes for a period of 2 hours, with additional samples taken up to 4 hours depending upon the protocol. The active-containing compositions were removed from the reservoir at 60 minutes and the reservoir rinsed twice.
At 2 hours, the dog is removed from anesthesia and the ring is removed from its buccal mucosa. Following recovery from anesthesia, subsequent blood samples are taken from the awake dogs. Blood samples are allowed to clot, the serum is separated by centrifugation, and the serum is frozen at −20° or −80° C., depending upon the protocol until analyzed for the active polypeptide content.
Desmopressin (deamino-Cysl-D-Arg Vasopressin, or D-Arg Vasopresin) was tested for buccal permeation into the blood stream by various administration forms: solution, powder, and compressed tablet.
Desmopressin-containing tablets for the experiment were prepared by combining 200 mg of effervescent formulation described in Example 1A (EF 1) with 20 mg sodium taurocholate. This mixture was added directly into a vial of lyophilized desmopressin. […]
Tablets prepared accordingly were tested in dogs per protocol described above. […] Desmopres sin was measured using LC/MS/MS analysis o the serum samples.

[3] = test system: cultured human buccal carcinoma cells (SqCC/Y1 cells); test: In vitro permeability assay (apparent permeability coefficient Papp across multilayer buccal cell culture); conditions: ELISA
Description: as §1, §2, §3, §4, §5, §6, §7, §8

[4] = Anaesthetized dog model, salmon calcitonin oral transmucosal permeation from effervescent tablets; type: in vivo; conditions: adding 2.5% NaTC or more to the effervescent formulation
Source text: Anesthetized dog models were used to evaluate transmucosal permeation of polypeptide compositions prepared in accordance with the invention. Mature mongrel large-breed (15-35 kg) dogs were screened for medical conditions to qualify. For testing, the dogs were anaesthetized, placed on their right or left side, and cannulated via the cephalic vein. A Teflon ring was attached to the buccal mucosa in a horizontal position to form a reservoir. Biologically active polypeptides to be evaluated were deposited, with or without enhancer components, onto the buccal mucosa surrounded by the ring. Depending upon the experiment, active polypeptides were deposited in the form of solution, dry powder or solid dosage form (tablet). […]
At 2 hours, the dog is removed from anesthesia and the ring is removed from its buccal mucosa. […] Blood samples are allowed to clot, the serum is separated by centrifugation, and the serum is frozen at −20° or −80° C., depending upon the protocol until analyzed for the active polypeptide content.
Salmon calcitonin (s-Ct) was tested for buccal permeation into the blood stream of anesthetized dogs with effervescent compressed tablets containing s-Ct and the bile salt (sodium taurocholate) at 0%, 2.5%, 5.0%, and 10% bile salt. […] The following table contains the formulation information of the tablets evaluated. […]

[5] = INTRON A acquired from Schering Corp.; cited from earlier work
[6] = with bile salt (sodium taurocholate) alone

Question: With NC(=O)CC[C@@H]1NC(=O)[C@H](Cc2ccccc2)NC(=O)[C@H](Cc2ccc(O)cc2)NC(=O)CCSSC[C@@H](C(=O)N2CCC[C@H]2C(=O)N[C@H](CCCN=C(N)N)C(=O)NCC(N)=O)NC(=O)[C@H](CC(N)=O)NC1=O [Desmopressin, deamino-Cysl-D-Arg Vasopressin] as the molecule, how does the “in vitro permeation of desmopressin across mucosal tissue (Papp)” value [1] read?
Answer: does not appear to appreciably increase polypeptide permeation

Question: And the “in vitro transport/permeability of desmopressin across mucosal tissue (Papp)” value [1]?
Answer: appears to exhibit appreciable enhancement

Question: And the “permeation of the polypeptide across the mucosal tissue in the in vivo model” value ([2]; desmopressin in combination with the bile salt alone)?
Answer: does not appear to appreciably increase the permeation

Question: What about the “transport/permeation of the polypeptide across the mucosal tissue in the in vivo model” value ([2]; desmopressin with combination of bile salt and effervescent formulation) of the same molecule?
Answer: appears to appreciably enhance

Question: And the “permeation of the polypeptide across the mucosal tissue in the in vivo model” value ([2]; desmopressin with the effervescent formulations alone)?
Answer: does not appear to appreciably increase the permeation

Question: What does the source list for CC(C)C[C@H](NC(=O)[C@H](CCCCN)NC(=O)CNC(=O)[C@H](CC(C)C)NC(=O)[C@@H](NC(=O)[C@@H]1CSSC[C@H](N)C(=O)N[C@@H](CO)C(=O)N[C@@H](CC(N)=O)C(=O)N[C@@H](CC(C)C)C(=O)N[C@@H](CO)C(=O)N[C@@H]([C@@H](C)O)C(=O)N1)C(C)C)C(=O)N[C@@H](CO)C(=O)N[C@@H](CCC(N)=O)C(=O)N[C@@H](CCC(=O)O)C(=O)N[C@@H](CC(C)C)C(=O)N[C@@H](Cc1c[nH]cn1)C(=O)N[C@@H](CCCCN)C(=O)N[C@@H](CC(C)C)C(=O)N[C@@H](CCC(N)=O)C(=O)N[C@H](C(=O)N[C@@H](Cc1ccc(O)cc1)C(=O)N1CCC[C@H]1C(=O)N[C@@H](CCCNC(=N)N)C(=O)N[C@H](C(=O)N[C@@H](CC(N)=O)C(=O)N[C@H](C(=O)NCC(=O)N[C@@H](CO)C(=O)NCC(=O)N[C@H](C(=O)N1CCC[C@H]1C(N)=O)[C@@H](C)O)[C@@H](C)O)[C@@H](C)O)[C@@H](C)O [s-CT]?
Answer: permeation result of combination compared with individual effects ([3]; s-CT + taurocholate + EF 2): greater than the sum of the individual permeation effects; in vitro permeation of s-CT across mucosal tissue (Papp) ([3]; with EF 2 alone): does not appear to exhibit an increase in permeation; in vitro permeation of s-CT across mucosal tissue (Papp) [3, 6]: does not appear to exhibit an increase in permeation; in vitro permeation/transport of s-CT across mucosal tissue (Papp) ([3]; with effervescent formulation (EF 2) and 1% or 2% bile salt): does appear to exhibit appreciably enhanced permeation/transport; transmucosal permeability of s-Ct in anesthetized dogs [4]: large improvement in permeability

Question: For IFNα, which specific activity [5] is on record?
Answer: 260 million IU per mg protein

Question: What about the “permeation result of combination compared with individual effects” value ([3]; IFNα + taurocholate + EF 1) of the same molecule?
Answer: greater than the sum of the individual permeation effects

Question: What about the “in vitro permeation of IFNα across mucosal tissue (Papp)” value ([3]; with 1% or 2% bile salt and effervescent composition (EF 1)) of the same molecule?
Answer: does appears to produce appreciable enhancement

Question: What about the “in vitro permeation of IFNα across mucosal tissue (Papp)” value ([3]; with EF 1 alone) of the same molecule?
Answer: does not appear to appreciably increase the permeation

Question: What about the “in vitro permeation of IFNα across mucosal tissue (Papp)” value ([3]; with bile salt alone) of the same molecule?
Answer: does not appear to appreciably increase the permeation

Question: With “IGF-1: Insulin-like Growth Factor-1, 70 amino acids with 3 internal disulfide bonds” as the molecule, how does the “permeation result of combination compared with individual effects” value ([3]; IGF-1 + taurocholate + EF2) read?
Answer: greater than the sum of the individual permeation effects

Question: What about the “in vitro permeation of IGF-1 across mucosal tissue (Papp)” value ([3]; with EF 2 alone) of the same molecule?
Answer: does not appear to exhibit an increase in permeation

Question: What about the “in vitro permeation/transport of IGF-1 across mucosal tissue (Papp)” value ([3]; with EF2 and 1% bile salt) of the same molecule?
Answer: appears to exhibit enhanced permeation/transport

Question: What about the “in vitro permeation of IGF-1 across mucosal tissue (Papp)” value [3, 6] of the same molecule?
Answer: does not appear to exhibit an increase in permeation
